Measurements published in ChEMBL document CHEMBL1136763, “Antiestrogenically active 1,1,2-tris(4-hydroxyphenyl)alkenes without basic side chain: synthesis and biological activity” (J Med Chem, 2003).

Legend:
MCF7 = assay: Inhibition of MCF-7 cell proliferation at 5 uM; assay type: functional, Homo sapiens
Estrogen receptor = Estrogen receptor (Homo sapiens, UniProt Q92731+P03372); assay: Inhibition of estradiol induced estrogen receptor transcriptional activation in MCF-7-2a cells; assay type: functional, cell-based

SMILES | IC50 (Estrogen receptor) | T/C corr (MCF7)
CC/C(=C(\c1ccccc1)c1ccc(OCCN(C)C)cc1)c1ccccc1 [TAMOXIFEN] | – | 15%
CC/C(=C(\c1ccc(O)cc1)c1ccc(OCCN(C)C)cc1)c1ccccc1 | – | 25%
CCCCC(=C(c1ccc(O)cc1)c1ccc(O)cc1)c1ccc(O)cc1 | 240 nM | 114%
CCCC(=C(c1ccc(O)cc1)c1ccc(O)cc1)c1ccc(O)cc1 | 70 nM | 102%

Now from value to compound, other results behind:

IC50 (Estrogen receptor) | SMILES | T/C corr (MCF7)
15 nM | CC(=C(c1ccc(O)cc1)c1ccc(O)cc1)c1ccc(O)cc1 | 88%
200 nM | Oc1ccc(C=C(c2ccc(O)cc2)c2ccc(O)cc2)cc1 | 70%
10 nM | CCC(=C(c1ccc(O)cc1)c1ccc(O)cc1)c1ccc(O)cc1 | 97%
